Experimental data from publication PMC9737391, “Trifluoromethylcinnamanilide Michael Acceptors for Treatment of Resistant Bacterial Infections” (International Journal of Molecular Sciences, 2022).
In brackets after ≈: the same amount, converted by molar mass. Several values for one entry are separate records, joined by “and”; a condition that tells them apart may be missing. Equal values may be shown once.

Tests used:
[1] = test system: S. aureus ATCC 29213; settings: MTT, at 0.25× MIC; cited from earlier work
[2] = test system: vancomycin-resistant E. faecalis VRE 368 (VRE2); experiment: MIC, microtitration broth method; assay type: cell-based, Enterococcus faecalis
[3] = test system: methicillin-resistant S. aureus 63718 (MRSA3); experiment: MIC, microtitration broth method; assay type: cell-based; settings: Staphylococcus aureus; MRSA 63718
[4] = test system: human monocytic leukemia cell line THP-1; experiment: In vitro cell viability (cytotoxicity screening); assay type: cell-based; settings: 24 h, medium with 10% FBS, ± SD, n = 6
Method: The investigated anilides can be divided into three groups. […] Higher concentrations (than 10 or 30 µM) were not possible to evaluate due to precipitation of the tested compounds in water medium. Based on all these observations, it can be concluded that the high antimicrobial activity of 3,5-CF3-substituted compounds is associated with significant cytotoxic effect against eukaryotic cells. On the other hand, the other still effective compounds, especially agents 1j and 1o, have an insignificant toxic effect, which makes them interesting for further study.
Human monocytic leukemia THP-1 cells obtained from the European Collection of Cell Cultures (ECACC, Salisbury, UK) were used for in vitro antiproliferative assays. A recently described procedure was used.

[5] = Lipophilicity determination by RP-HPLC; assay type: physicochemical; settings: RP-HPLC, logarithm of capacity factor k
Method: It is evident from the graphs in Figure 1 that the correlation coefficients of the dependences of log k/log D6.5/log D7.4 have a value of r = 0.999 (n = 32), which means that the investigated compounds behave insignificantly differently in aqueous media with different pH. Moreover, lipophilicity was calculated as log P and Clog P using two prediction programs. […] Therefore, only log P values predicted by ACD/Percepta can be used for correlations with experimental values. These matches are shown in the graphs in Figure 2, and according to the correlation coefficient r~0.940 (n = 32), it can be argued that even the predicted lipophilicity values correlate with the experimentally measured ones. However, the largest variations were observed (no difference for series 1, 2) for compounds substituted with 2-Cl, 2-CF3, 2,5-Cl, 4-F, 4-CF3, and 3,5-F, 3,5-Cl. These are mainly substituents capable of forming hydrogen and other types of non-bonding interactions both with the surrounding environment and within the molecule. Overall, series 1 (3-CF3) is less lipophilic than series 2 (4-CF3), but the differences in the experimental data are insignificant. Unsubstituted derivatives 1a/2a are the least lipophilic compounds, while derivatives 1o/2o (3,5-Cl) and 1p/2p (3,5-CF3) are the most lipophilic compounds.
Experimental determination of lipophilicity values (log k, log D6.5, and log D7.4) was performed under the same conditions and on the same device as described by Strharsky et al..

[6] = test system: methicillin-resistant S. aureus 63718 (MRSA3); experiment: MBC, agar aliquot subculture method; assay type: cell-based; settings: Staphylococcus aureus; MRSA 63718
[7] = test system: E. faecalis/VRE; experiment: Anti-enterococcal activity, summary over strains; assay type: cell-based, Enterococcus faecalis
[8] = test system: Enterococcus faecalis ATCC 29212; experiment: MBC, agar aliquot subculture method; assay type: cell-based; settings: ATCC29212, E. faecalis reference strain
[9] = test system: methicillin-resistant S. aureus SA 3202 (MRSA1); experiment: MIC, microtitration broth method; assay type: cell-based; settings: Staphylococcus aureus; MRSA SA 3202
[10] = test system: methicillin-resistant S. aureus SA 630 (MRSA2); experiment: MIC, microtitration broth method; assay type: cell-based; settings: Staphylococcus aureus; MRSA SA 630
[11] = test system: Staphylococcus aureus ATCC 29213; experiment: MIC, microtitration broth method; assay type: cell-based; settings: ATCC29213, S. aureus ATCC 29213
[12] = test system: M. smegmatis ATCC 700084; experiment: In vitro antimycobacterial evaluation (MIC); assay type: cell-based, Mycobacterium smegmatis; settings: Mycolicibacterium smegmatis, ATCC700084
[13] = test system: M. smegmatis and M. marinum; experiment: Antimycobacterial activity, summary over both strains; assay type: cell-based; settings: average over the named compounds and strains; read-out: average MIC against M. smegmatis and M. marinum
[14] = test system: vancomycin-resistant E. faecalis VRE 342B (VRE1); experiment: MIC, microtitration broth method; assay type: cell-based, Enterococcus faecalis
[15] = test system: vancomycin-resistant E. faecalis VRE 725B (VRE3); experiment: MBC, agar aliquot subculture method; assay type: cell-based, Enterococcus faecalis
[16] = test system: S. aureus ATCC 29213; experiment: MTT assay, inhibition of bacterial respiration; assay type: cell-based, Staphylococcus aureus
Excerpt: The MTT assay can be used to assess cell growth by measuring respiration. Respiratory activity of bacterial cells (which is finally reflected in their viability) less than 70% after exposure to the MIC values for each tested compound is considered as a positive result of this assay. This low level of cell oxidative metabolism indicates inhibition of cell growth by inhibition of respiration. The lowest multiples of MIC values that achieved more than 70% inhibition of S. aureus ATCC 29213 viability (%) are shown in Table 3.
The percent inhibition of respiration of S. aureus ATCC 29213 was determined through the MTT assay. The assay was performed as described recently. The percent viability is calculated through the comparison of a measured value and that of the uninhibited control: % viability = OD570E/OD570P × 100, where OD570E is the reading from the compound-exposed cells, while OD570P is the reading from the uninhibited cells (positive control). Cytotoxic potential is determined by a percent viability of <70% [46, 47].

[17] = test system: methicillin-resistant S. aureus SA 3202 (MRSA1); experiment: MBC, agar aliquot subculture method; assay type: cell-based; settings: Staphylococcus aureus; MRSA SA 3202
[18] = test system: S. aureus/MRSA; experiment: Antistaphylococcal activity, summary over strains; assay type: cell-based, Staphylococcus aureus
[19] = test system: methicillin-resistant S. aureus SA 630 (MRSA2); experiment: MBC, agar aliquot subculture method; assay type: cell-based; settings: Staphylococcus aureus; MRSA SA 630
[20] = test system: vancomycin-resistant E. faecalis VRE 725B (VRE3); experiment: MIC, microtitration broth method; assay type: cell-based, Enterococcus faecalis
[21] = test system: Staphylococcus aureus ATCC 29213; experiment: MBC, agar aliquot subculture method; assay type: cell-based; settings: ATCC29213, S. aureus ATCC 29213
[22] = test system: vancomycin-resistant E. faecalis VRE 368 (VRE2); experiment: MBC, agar aliquot subculture method; assay type: cell-based, Enterococcus faecalis
[23] = test system: vancomycin-resistant E. faecalis VRE 342B (VRE1); experiment: MBC, agar aliquot subculture method; assay type: cell-based, Enterococcus faecalis
[24] = test system: Enterococcus faecalis ATCC 29212; experiment: MIC, microtitration broth method; assay type: cell-based; settings: ATCC29212, E. faecalis reference strain
[25] = test system: Mycobacterium marinum CAMP 5644; experiment: In vitro antimycobacterial evaluation (MIC); assay type: cell-based

Compound: O=C(/C=C/c1ccc(Cl)c(Cl)c1)Nc1cc(C(F)(F)F)cc(C(F)(F)F)c1 [4f]
- inhibition of S. aureus respiration [1]: 96%

Compound: O=C(/C=C/c1ccc(C(F)(F)F)cc1)Nc1cc(C(F)(F)F)cc(C(F)(F)F)c1 [2p, (2E)-N-[3,5-bis(Trifluoromethyl)phenyl]-3-[4-(trifluoromethyl)phenyl]prop-2-enamide]
- MIC [2]: 4.68 µM (≈ 2 µg/mL)
- MIC [3]: 0.293 µM (≈ 0.125 µg/mL)
- IC50 [4]: 8.9 ± 1.3 µM
- log k [5]: 1.3665
- MBC [6]: 0.293 µM (≈ 0.125 µg/mL)
- MIC ([7]; Enterococcus faecalis, VRE, average over the named compounds and strains, read-out: average MIC against E. faecalis/VRE): ~15 µM (≈ 6.41 µg/mL)
- anti-enterococcal MICs/MBCs ([7]; range over E. faecalis and VRE isolates and over the named compounds): 2.34 to 44.5 µM
- MBC [8]: 4.68 µM (≈ 2 µg/mL)
- MIC [9]: 0.585 µM (≈ 0.25 µg/mL)
- MIC [10]: 0.293 µM (≈ 0.125 µg/mL)
- MIC [11]: 0.146 µM (≈ 0.0624 µg/mL)
- MIC [12]: 1.17 µM (≈ 0.5 µg/mL)
- MIC [13]: ~4.1 µM (≈ 1.75 µg/mL)
- MIC [14]: 2.34 µM (≈ 1 µg/mL)
- MBC [15]: 2.34 µM (≈ 1 µg/mL)
- Conc.: lowest multiple of MIC with at least 70% inhibition of respiratory activity [16]: 2× MIC (2× MBC)
- Conc.: the same concentration as multiple of MBC [16]: 2× MIC (2× MBC)
- MBC [17]: 0.585 µM (≈ 0.25 µg/mL)
- MIC ([18]; Staphylococcus aureus, MRSA, average over the named compounds and strains, read-out: average MIC against S. aureus/MRSA): ~1.4 µM (≈ 0.598 µg/mL)
- antistaphylococcal MICs/MBCs ([18]; range over S. aureus and MRSA isolates and over the named compounds): 0.15 to 5.57 µM and 0.146 to 5.57 µM
- MBC [19]: 0.585 µM (≈ 0.25 µg/mL)
- MIC [20]: 2.34 µM (≈ 1 µg/mL)
- melting point: 207 to 209 °C
- MBC [21]: 0.146 µM (≈ 0.0624 µg/mL)
- MBC [22]: 9.36 µM (≈ 4 µg/mL)
- MBC [23]: 4.68 µM (≈ 2 µg/mL)
- MIC [24]: 2.34 µM (≈ 1 µg/mL)
- MIC MM ([25]; M. marinum CAMP 5644): 0.293 – µM
- MIC ([25]; Mycobacterium marinum, CAMP5644, M. marinum CAMP 5644): 0.29 to 22.2 µM (≈ 0.124 to 9.49 µg/mL)
